Read-outs that look alike come from different tables or passages of the source.

By EC50 is commonly meant the concentration at which the effect is half-maximal.

The target in this assay is FXR (Homo sapiens (Human), UniProt Q96RI1). As to the kind of experiment: transient human FXR/Gal4-luciferase reporter assay. The format is cell-based. The essentials: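 HEK293 cells stably carrying a 5×Gal4 response element–firefly luciferase reporter were transiently transfected overnight with a Gal4 DBD–human FXR LBD fusion plasmid. Compound was added in DMSO and cells were incubated overnight at 37 °C, 5% CO2. Activity was read as Steady-Glo luminescence.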
FXR, sequence (Q96RI1 262-486): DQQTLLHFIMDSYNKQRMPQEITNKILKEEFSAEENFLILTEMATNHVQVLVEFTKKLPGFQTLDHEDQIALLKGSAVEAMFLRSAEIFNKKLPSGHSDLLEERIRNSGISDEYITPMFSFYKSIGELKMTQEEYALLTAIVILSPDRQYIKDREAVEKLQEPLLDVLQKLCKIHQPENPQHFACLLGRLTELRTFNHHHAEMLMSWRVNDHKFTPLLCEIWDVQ

Setting [1] is: Gal4-hFXR fusion construct, HEK293 reporter cells, response relative to 8 μM GW-4064.

For `CS(=O)(=O)Nc1ccc(-c2cccc(N(CC34CCC(c5nnc(C6CC6)o5)(CC3)CC4)C(=O)C34CC(F)(C3)C4)c2)cc1` [Example 344, N-((4-(5-cyclopropyl-1,3,4-oxadiazol-2-yl)bicyclo[2.2.2]octan-1-yl)methyl)-3-fluoro-N-(4′-(methylsulfonamido)-[1,1′-biphenyl]-3-yl)bicyclo[1.1.1]pentane-1-carboxamide], the EC50 under setting [1] was 293 nM.

`O=C(C1CC(F)(F)C1)N(CC12CCC(c3nc(C4CC4)no3)(CC1)CC2)c1cccc(-c2ccnc(OC3CC3)n2)c1` [Example 338, N-(3-(2-cyclopropoxypyrimidin-4-yl)phenyl)-N-((4-(3-cyclopropyl-1,2,4-oxadiazol-5-yl)bicyclo[2.2.2]octan-1-yl)methyl)-3,3-difluorocyclobutane-1-carboxamide] displayed a concentration for a half-maximal effect (EC50) under setting [1] of 1360 nM. `CCOc1ccc(-c2cccc(N(CC34CCC(c5cnc(C(F)(F)F)nc5)(CC3)OC4)C(=O)C34CC(F)(C3)C4)c2)cc1` [Example 422, N-(4′-ethoxy-[1,1′-biphenyl]-3-yl)-3-fluoro-N-((1-(2-(trifluoromethyl)pyrimidin-5-yl)-2-oxabicyclo[2.2.2]octan-4-yl)methyl)bicyclo[1.1.1]pentane-1-carboxamide] yielded an EC50 under setting [1] of 1520 nM. `CCOc1ncc(-c2cccc(N(CC34CCC(c5noc(C6(C)COC6)n5)(CC3)CC4)C(=O)[C@H]3C[C@@H](OC)C3)c2)cn1` [Example 518, (cis)-N-(3-(2-ethoxypyrimidin-5-yl)phenyl)-3-methoxy-N-((4-(5-(3-methyloxetan-3-yl)-1,2,4-oxadiazol-3-yl)bicyclo[2.2.2]octan-1-yl)methyl)cyclobutane-1-carboxamide]: under setting [1], a half-maximal response (EC50) required 1290 nM.

`O=C(N(CC12CCC(c3nc(C4CC4)no3)(CC1)CC2)c1cncc(-c2cnc(C(F)(F)F)nc2)c1)C12CC(F)(C1)C2` [Example 428, N-((4-(3-cyclopropyl-1,2,4-oxadiazol-5-yl)bicyclo[2.2.2]octan-1-yl)methyl)-3-fluoro-N-(5-(2-(trifluoromethyl)pyrimidin-5-yl)pyridin-3-yl)bicyclo[1.1.1]pentane-1-carboxamide]: the EC50 under setting [1] stood at 3550 nM. `Cc1ccc(-c2cccc(N(CC34CCC(c5nc(C6CC6)no5)(CC3)CC4)C(=O)C34CC(F)(C3)C4)c2)nc1` [Example 325, N-((4-(3-cyclopropyl-1,2,4-oxadiazol-5-yl)bicyclo[2.2.2]octan-1-yl)methyl)-3-fluoro-N-(3-(5-methylpyridin-2-yl)phenyl)bicyclo[1.1.1]pentane-1-carboxamide]: a half-maximal effect under setting [1] (EC50) was put at 24 nM.

In turn, `CC(C)OC(=O)NC12CCC(CN(C(=O)C3CC(O)(C(F)(F)F)C3)c3cccc(-c4ccc(C(C)(C)O)cc4)c3)(CC1)CC2` (stereo not drawn) [Example 602, Isopropyl (4-(((cis)-3-hydroxy-N-(4′-(2-hydroxypropan-2-yl)-[1,1′-biphenyl]-3-yl)-3-(trifluoromethyl)cyclobutane-1-carboxamido)methyl)bicyclo[2.2.2]octan-1-yl)carbamate] had an EC50 under setting [1] of 142 nM.

Under setting [1], `Cc1nc2ccc(-c3cccc(N(CC45CCC(c6ccc(C7(C#N)CC7)cc6)(CC4)OC5)C(=O)C45CC(F)(C4)C5)c3)cc2o1` [Example 347, N-((1-(4-(1-cyanocyclopropyl)phenyl)-2-oxabicyclo[2.2.2]octan-4-yl)methyl)-3-fluoro-N-(3-(2-methylbenzo[d]oxazol-6-yl)phenyl)bicyclo[1.1.1]pentane-1-carboxamide] showed a concentration for a half-maximal effect (EC50) of 123 nM.

`COc1ccc(-c2cccc(N(CC34CCC(c5nc(C6CC6)no5)(CC3)CC4)C(=O)C34CC(F)(C3)C4)c2)cc1OC` [Example 301, N-((4-(3-cyclopropyl-1,2,4-oxadiazol-5-yl)bicyclo[2.2.2]octan-1-yl)methyl)-N-(3′,4′-dimethoxy-[1,1′-biphenyl]-3-yl)-3-fluorobicyclo[1.1.1]pentane-1-carboxamide]: the EC50 under setting [1] came to 519 nM. Same read-out and setting: next, `Cn1ncc2cc(-c3cccc(N(CC45CCC(c6nc(C7CC7)no6)(CC4)CC5)C(=O)C45CC(F)(C4)C5)c3)ccc21` [Example 304, N-((4-(3-cyclopropyl-1,2,4-oxadiazol-5-yl)bicyclo[2.2.2]octan-1-yl)methyl)-3-fluoro-N-(3-(1-methyl-1H-indazol-5-yl)phenyl)bicyclo[1.1.1]pentane-1-carboxamide]: 248 nM; `CC(C)(F)c1nc(C23CCC(CN(c4cccc(C5=CCOCC5)c4)C(=O)[C@H]4C[C@](O)(C(F)(F)F)C4)(CC2)CC3)no1` [Example 588, (cis)-N-(3-(3,6-dihydro-2H-pyran-4-yl)phenyl)-N-((4-(5-(2-fluoropropan-2-yl)-1,2,4-oxadiazol-3-yl)bicyclo[2.2.2]octan-1-yl)methyl)-3-hydroxy-3-(trifluoromethyl) cyclobutane-1-carboxamide]: 395 nM; `COc1nccc(-c2cccc(N(CC34CCC(c5nc(C6CC6)no5)(CC3)CC4)C(=O)C3CC(F)(F)C3)c2)n1` [Example 243, N-((4-(3-cyclopropyl-1,2,4-oxadiazol-5-yl)bicyclo[2.2.2]octan-1-yl)methyl)-3,3-difluoro-N-(3-(2-methoxypyrimidin-4-yl)phenyl)cyclobutane-1-carboxamide]: 428 nM.

With `O=C(N(CC12CCC(c3nc(C4CC4)no3)(CC1)CC2)c1cccc(-c2ccc3ncsc3c2)c1)C12CC(F)(C1)C2` [Example 277, N-(3-(benzo[d]thiazol-6-yl)phenyl)-N-((4-(3-cyclopropyl-1,2,4-oxadiazol-5-yl)bicyclo[2.2.2]octan-1-yl)methyl)-3-fluorobicyclo[1.1.1]pentane-1-carboxamide], under setting [1], the EC50 came out at 35 nM. Still for that read-out and setting: next, `Cc1cn2cc(-c3cccc(N(CC45CCC(c6nc(C7CC7)no6)(CC4)CC5)C(=O)C45CC(F)(C4)C5)c3)cc(C)c2n1` [Example 322, N-((4-(3-cyclopropyl-1,2,4-oxadiazol-5-yl)bicyclo[2.2.2]octan-1-yl)methyl)-N-(3-(2,8-dimethylimidazo[1,2-a]pyridin-6-yl)phenyl)-3-fluorobicyclo[1.1.1]pentane-1-carboxamide]: 270 nM.

`CC(C)(C)c1nc(C23CCC(CN(C(=O)C45CC(F)(C4)C5)c4cccc(-c5ccc(NS(=O)(=O)C(F)(F)F)cc5)c4)(CC2)CC3)no1` [Example 446, N-((4-(5-(tert-butyl)-1,2,4-oxadiazol-3-yl)bicyclo[2.2.2]octan-1-yl)methyl)-3-fluoro-N-(4′-((trifluoromethyl)sulfonamido)-[1,1′-biphenyl]-3-yl)bicyclo[1.1.1]pentane-1-carboxamide] displayed an EC50 under setting [1] of 225 nM. For the compound `CCOc1ncc(-c2cncc(N(CC34CCC(c5noc(C(C)(C)C)n5)(CC3)CC4)C(=O)C34CC(F)(C3)C4)c2)cn1` [Example 478, N-((4-(5-(tert-butyl)-1,2,4-oxadiazol-3-yl)bicyclo[2.2.2]octan-1-yl)methyl)-N-(5-(2-ethoxypyrimidin-5-yl)pyridin-3-yl)-3-fluorobicyclo[1.1.1]pentane-1-carboxamide], under setting [1], the EC50 came out at 1100 nM. `CCOc1ncc(-c2cccc(N(CC34CCC(c5nc(C(C)(C)C)no5)(CC3)CC4)C(=O)C34CC(N)(C3)C4)c2)cn1` [Example 506, 3-amino-N-((4-(3-(tert-butyl)-1,2,4-oxadiazol-5-yl)bicyclo[2.2.2]octan-1-yl)methyl)-N-(3-(2-ethoxypyrimidin-5-yl)phenyl)bicyclo[1.1.1]pentane-1-carboxamide] returned an EC50 of 2370 nM. Compound `CC(C)(C)c1nc(C23CCC(CN(C(=O)C45CC(F)(C4)C5)c4cncc(-c5ccc(OC(F)F)cn5)c4)(CC2)CC3)no1` [Example 486, N-((4-(5-(tert-butyl)-1,2,4-oxadiazol-3-yl)bicyclo[2.2.2]octan-1-yl)methyl)-N-(5-(difluoromethoxy)-[2,3′-bipyridin]-5′-yl)-3-fluorobicyclo[1.1.1]pentane-1-carboxamide] returned an EC50 under setting [1] of 89 nM. On the same count and under the same terms, next, `COc1nccc(-c2cccc(N(CC34CCC(c5nc(C6CC6)no5)(CC3)CC4)C(=O)C3CCC(F)(F)C3)c2)n1` (centres unmarked) [Example 245, N-((4-(3-cyclopropyl-1,2,4-oxadiazol-5-yl)bicyclo[2.2.2]octan-1-yl)methyl)-3,3-difluoro-N-(3-(2-methoxypyrimidin-4-yl)phenyl)cyclopentane-1-carboxamide]: 538 nM.

On to `CC(C)(C)c1nc(C23CCC(CN(C(=O)C45CC(F)(C4)C5)c4cc(-c5ccc(NS(C)(=O)=O)cc5)ccn4)(CC2)CC3)no1` [Example 534, N-((4-(5-(tert-butyl)-1,2,4-oxadiazol-3-yl)bicyclo[2.2.2]octan-1-yl)methyl)-3-fluoro-N-(4-(4-(methylsulfonamido)phenyl)pyridin-2-yl)bicyclo[1.1.1]pentane-1-carboxamide], for which the EC50 turned out to be 77 nM. `CCOc1ncc(-c2cccc(N(CC34CCC(c5ncc(OC)cn5)(CC3)CC4)C(=O)C34CC(F)(C3)C4)c2)cn1` [Example 552, N-(3-(2-ethoxypyrimidin-5-yl)phenyl)-3-fluoro-N-((4-(5-methoxypyrimidin-2-yl)bicyclo[2.2.2]octan-1-yl)methyl)bicyclo[1.1.1]pentane-1-carboxamide] yielded an EC50 under setting [1] of 359 nM. On the same count and under the same terms, next, `CC(F)(F)c1nc(C23CCC(CN(C(=O)C45CC(F)(C4)C5)c4cccc(C5CC5)c4)(CC2)CC3)no1` [Example 571, N-(3-cyclopropylphenyl)-N-((4-(5-(1,1-difluoroethyl)-1,2,4-oxadiazol-3-yl)bicyclo[2.2.2]octan-1-yl)methyl)-3-fluorobicyclo[1.1.1]pentane-1-carboxamide]: 47 nM; `CC(C)(C)c1nc(C23CCC(CN(C(=O)C45CC(F)(C4)C5)c4cccc(-c5cnc(C(F)(F)F)nc5)c4)(CC2)CC3)no1` [Example 443, N-((4-(5-(tert-butyl)-1,2,4-oxadiazol-3-yl)bicyclo[2.2.2]octan-1-yl)methyl)-3-fluoro-N-(3-(2-(trifluoromethyl)pyrimidin-5-yl)phenyl)bicyclo[1.1.1]pentane-1-carboxamide]: 357 nM.

For the origin of these results see patent US11254663B2 (BRISTOL-MYERS SQUIBB COMPANY, priority 2019, dated 2022).
